Consider 27 compounds from patent US9828364B2, “Pyrazole compounds as BTK inhibitors” (Boehringer Ingelheim International GmbH, priority 2014, dated 2017).

In assay [1] the target is T1, full-length human His-tagged BTK (Homo sapiens, UniProt Q06187).
T1 construct: 6 nM of full-length human His-tagged BTK (Life Technologies cat # PV3587); His; purchased Life Technologies PV3587
In words: BTK HTRF assay (Cisbio KinEASE-TK). In kind it is biochemical. Conditions: 6 nM BTK, 30 uM ATP, 15 min preincubation. On the procedure:
Description of Biological Properties BTK Assay
An HTRF assay (Cisbio KinEASE-TK cat #62TK0PEC) was performed to quantitate the ability of test compounds to inhibit BTK mediated phosphorylation of substrate. Assays were assembled in 384 well plates where 6 nM of full-length human His-tagged BTK (Life Technologies cat # PV3587) and test compound at varying concentrations were preincubated for 15 minutes at 28° C. Then, 1 uM of TK substrate-biotin and 30 uM ATP were added and incubated for an additional 30 minutes at 28° C. Phospohrylation was detected by adding 62.5 nM Streptavidin-XL665 and TK-Antibody Cryptate diluted 1:100 in HTRF detection buffer (Cisbio cat #62SDBRDF) and incubated for 60 minutes at RT. The plate was read on an Envision plate reader and the fluorescence is measured at 620 nm (cryptate) and 665 nm (XL665). A ratio is calculated (665/620) and converted to POC relative to control and blank wells.
50 mM HEPES (Invitrogen #15630), 0.01% Brij-35 (sigma #B4184), 10 mM MgCl2 (Sigma M1028), 1 mM EGTA (Ambion AM9262) and 100 uM sodium orthovanedate (Sigma S6508), 1 mM DTT (Sigma D5545) and 10 nM supplement enzyme buffer (Cisbio cat#61SEBALB).
Background: In TR-FRET formats the signal depends on donor and acceptor labels being close together.

Assay [2] deals with EGFR phosphorylation in A431 cells. In words: Inhibition of EGFR autophosphorylation in A431 human epithelial cells stimulated with EGF. In kind it is cell-based. The settings on record: A-431, 16 hours compound, EGF 60 ng/mL 10 minutes, read-out: A431 p-EGFR IC50. The source says:
(§1) The compounds described herein show a range of selectivities against EGFR as measured in cellular assays (BTK activity measured by IL-6 production in primary CD19^+ cells; EGFR activity measured by EGFR phosphorylation in A431 cells).
Inhibition of EGFR Autophosphorylation in A431 Human Epithelial Cells Stimulated with Epithelial Growth Factor
A431 cells (ATCC # CRL-1555 FZ) are thawed and plated in DMEM containing 10% FBS in a 384-well tissue culture treated plate at 15,000 cells/well. After incubating for 24 hours at 37° C., 5% CO2, the cells are treated with test compound (1% DMSO final concentration) and incubated for 16 hours at 37° C., 5% CO2. EGF (Millipore, 01-107) is added at a final concentration of 60 ng/mL and incubated for 10 minutes. The medium is removed, the cells are lysed, and phospho EGFR is measured (Meso Scale Diagnostics, N31CB-1).

Assay [3] deals with BTK activity measured by IL-6 production in primary CD19+ cells. In words: Inhibition of IL-6 production in B cells co-stimulated with ODN 2006 and anti-hIgD. Conditions: B-cell, anti-human IgD + ODN 2006, 18-24 hours. The assay is classed as cell-based. On the procedure:
as §1
Inhibition of IL-6 Production in B Cells Co-Stimulated with ODN 2006 and Anti-hIgD
Primary CD19+ B cells (AllCells # PB010F) are thawed and plated in RPMI containing 10% HI FBS in a 384-well tissue cultured plate at 20,000 cells/well. The cells are treated with test compound (0.5% DMSO final concentration) and incubated for 1 hour at 37° C., 5% CO2. Cells are then stimulated with 5 ug/mL Goat F(ab′)2 anti-human IgD (SouthernBiotech #2032) and 2 uM ODN 2006 (InvivoGen # tlrl-2006) and incubated for 18-24 hours at 37° C., 5% CO2. IL-6 in the supernatant is measured using Meso Scale Discovery kit # K211AKB-6.

T1 sequence (Q06187 whole entry): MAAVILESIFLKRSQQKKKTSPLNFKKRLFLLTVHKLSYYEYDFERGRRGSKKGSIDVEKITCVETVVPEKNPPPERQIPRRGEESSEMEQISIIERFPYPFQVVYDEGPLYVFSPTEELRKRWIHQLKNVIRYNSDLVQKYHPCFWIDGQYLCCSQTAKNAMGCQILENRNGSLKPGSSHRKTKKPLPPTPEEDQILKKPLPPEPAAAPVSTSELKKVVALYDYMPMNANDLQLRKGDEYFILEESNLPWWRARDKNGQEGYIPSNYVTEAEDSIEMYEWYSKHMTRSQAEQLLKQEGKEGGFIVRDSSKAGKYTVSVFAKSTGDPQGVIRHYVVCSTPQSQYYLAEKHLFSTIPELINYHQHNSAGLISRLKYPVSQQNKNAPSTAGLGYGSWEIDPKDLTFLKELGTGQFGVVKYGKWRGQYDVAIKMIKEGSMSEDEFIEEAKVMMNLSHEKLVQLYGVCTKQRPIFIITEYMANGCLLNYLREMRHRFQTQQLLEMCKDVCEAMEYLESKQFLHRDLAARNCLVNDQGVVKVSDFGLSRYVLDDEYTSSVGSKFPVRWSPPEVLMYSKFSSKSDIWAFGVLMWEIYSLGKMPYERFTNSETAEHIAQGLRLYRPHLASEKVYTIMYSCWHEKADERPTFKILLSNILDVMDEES

`C=CC(=O)N1CC2(CC(n3nc(-c4ccc(C(C)OCC)cc4)c(C(N)=O)c3N)C2)C1` (stereo not shown) [Example 1]: it took 100 nM to reach half-maximal inhibition in assay [1] (IC50).

As to `C=CC(=O)N1CC2(CC(n3nc(-c4ccc(C(C)OC)cc4)c(C(N)=O)c3N)C2)C1` (stereo not shown) [Example 2], in assay [1], half-maximal inhibition (IC50) was put at 200 nM.

On to `C=CC(=O)N1CC2(CC(n3nc(-c4ccc(COC)cc4)c(C(N)=O)c3N)C2)C1` [Example 3], for which, in assay [1], inhibition was half-maximal at 94 nM (IC50).

In the case of `C=CC(=O)N1CC[C@]2(C1)C[C@H](n1nc(-c3ccc(COC)cc3)c(C(N)=O)c1N)C2` [Example 4], the midpoint of inhibition in assay [1], the IC50, lay at 26 nM.

For the compound `CC#CC(=O)N1CC[C@]2(C1)C[C@H](n1nc(-c3ccc(COC)cc3)c(C(N)=O)c1N)C2` [Example 5], the figures for the IC50 in assay [2], in assay [1] and in assay [3] were 6100 nM, 2 nM and 2.4 nM, respectively.

On to `C=CC(=O)N1CCC[C@]2(C1)C[C@@H](n1nc(-c3ccc(COC)cc3)c(C(N)=O)c1N)C2` [Example 6], for which the IC50 – broadly, the concentration at which inhibition is half-maximal – in assay [1] came out at 460 nM.

Consider `C=CC(=O)N1CCC[C@]2(C1)C[C@H](n1nc(-c3ccc(COC)cc3)c(C(N)=O)c1N)C2` [Example 7], for which it took 450 nM to reach half-maximal inhibition in assay [1] (IC50).

Compound `CC#CC(=O)N1CCC[C@]2(C1)C[C@@H](n1nc(-c3ccc(COC)cc3)c(C(N)=O)c1N)C2` [Example 8] had an IC50 in assay [1] of 160 nM.

Take `CC#CC(=O)N1CCC[C@]2(C1)C[C@H](n1nc(-c3ccc(COC)cc3)c(C(N)=O)c1N)C2` [Example 9]: the IC50 in assay [2] is over 10000 nM; in assay [1], 8.2 nM; in assay [3], 6.3 nM.

`CC#CC(=O)N1CC[C@]2(C1)C[C@H](n1nc(-c3ccc(C(C)OC)cc3)c(C(N)=O)c1N)C2` (stereo partly shown) [Example 10] gave an IC50 in assay [1] of 9.3 nM.

`CC#CC(=O)N1CC[C@]2(C1)C[C@H](n1nc(-c3ccc(COCC)cc3)c(C(N)=O)c1N)C2` [Example 11] came in with an IC50 in assay [1] of 2.2 nM.

`CCC#CC(=O)N1CC[C@]2(C1)C[C@H](n1nc(-c3ccc(COC)cc3)c(C(N)=O)c1N)C2` [Example 12] registered a concentration for half-maximal inhibition (IC50) in assay [1] of 0.9 nM.

In turn, `COCc1ccc(-c2nn([C@H]3C[C@@]4(CCN(C(=O)C#CC5CC5)C4)C3)c(N)c2C(N)=O)cc1` [Example 13] came in with a half-maximal inhibitory concentration (IC50) in assay [1] of 0.7 nM.

`COCc1ccc(-c2nn([C@H]3C[C@@]4(CCN(C(=O)C#CC5CCC5)C4)C3)c(N)c2C(N)=O)cc1` [Example 14] showed an IC50 in assay [1] of 0.6 nM.

In assay [1], `CC#CC(=O)N1CC[C@]2(C1)C[C@H](n1nc(-c3ccc(C(C)OCC)cc3)c(C(N)=O)c1N)C2` (stereo partly shown) [Example 15] returned a half-maximal inhibitory concentration (IC50) of 3.6 nM.

As for `CCC#CC(=O)N1CC[C@]2(C1)C[C@H](n1nc(-c3ccc(C(C)OCC)cc3)c(C(N)=O)c1N)C2` (stereo partly shown) [Example 16], in assay [1], the IC50 was 1.8 nM.

Compound `CCOC(C)c1ccc(-c2nn([C@H]3C[C@@]4(CCN(C(=O)C#CC5CC5)C4)C3)c(N)c2C(N)=O)cc1` (stereo partly shown) [Example 17] had an IC50 in assay [1] of 1.2 nM.

As to `C=CC(=O)N1CC[C@]2(C1)C[C@H](n1nc(-c3ccc(C(O)C(C)C)cc3)c(C(N)=O)c1N)C2` (stereo partly shown) [Example 18], the midpoint of inhibition in assay [1], the IC50, lay at 150 nM.

Regarding `CC#CC(=O)N1CC[C@]2(C1)C[C@H](n1nc(-c3ccc(C(O)C(C)C)cc3)c(C(N)=O)c1N)C2` (stereo partly shown) [Example 19], the values for the IC50 in assay [2], in assay [1] and in assay [3] were 3000 nM, 4.5 nM and 5.1 nM, respectively.

For `C=CC(=O)N1CC[C@]2(C1)C[C@H](n1nc(-c3ccc(CO)cc3)c(C(N)=O)c1N)C2` [Example 20], inhibition in assay [1] was half-maximal at 66 nM (IC50).

As for `CC#CC(=O)N1CC[C@]2(C1)C[C@H](n1nc(-c3ccc(CO)cc3)c(C(N)=O)c1N)C2` [Example 21], half-maximal inhibition in assay [1] (IC50) required 2.5 nM.

In assay [1], `CC#CC(=O)N1CCC[C@]2(C1)C[C@H](n1nc(-c3ccc(C(O)C4CC4)cc3)c(C(N)=O)c1N)C2` (stereo partly shown) [Example 22] registered a half-maximal inhibitory concentration (IC50) of 59 nM.

Compound `C=CC(=O)N1CCC[C@]2(C1)C[C@@H](n1nc(-c3ccc(C(O)C4CC4)cc3)c(C(N)=O)c1N)C2` (stereo partly shown) [Example 23] showed a half-inhibitory concentration (IC50) in assay [1] of 68 nM.

In assay [1], `C=CC(=O)N1CC2(CC(n3nc(-c4ccc(C5(CO)CC5)cc4)c(C(N)=O)c3N)C2)C1` [Example 24] gave a 50% inhibitory concentration (IC50) of 240 nM.

On to `CC#CC(=O)N1CC[C@]2(C1)C[C@H](n1nc(-c3ccc(CCO)cc3)c(C(N)=O)c1N)C2` [Example 25], for which the concentration for half-maximal inhibition (IC50) is over 10000 nM in assay [2], 1.4 nM in assay [1] and 7 nM in assay [3].

Compound `CC#CC(=O)N1CC[C@]2(C1)C[C@H](n1nc(-c3ccc(C4(CO)CC4)cc3)c(C(N)=O)c1N)C2` [Example 26] returned a concentration for half-maximal inhibition (IC50) in assay [1] of 2.4 nM.

`CC#CC(=O)N1CC[C@]2(C1)C[C@H](n1nc(-c3ccc(S(C)(=O)=O)cc3)c(C(N)=O)c1N)C2` [Example 27]: the IC50 in assay [2] was over 10000 nM; in assay [1], 12 nM; in assay [3] it was 93 nM.
